The record followed here is patent US8101550B2, “Anthranilic acid diamide derivative with hetero-aromatic and hetero-cyclic substituents” (Bayer Cropscience AG, priority 2006, dated 2012).

A word on the logP: it is the decadic logarithm of the partition coefficient of the neutral form, usually between octanol and water.

This series in a line: log P determination by HPLC on reverse-phase column (EEC Directive 79/831 Annex V.A8). It counts as physicochemical. A digest of the protocol:
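Log P was derived from retention times by linear interpolation between successive unbranched alkan-2-one standards (C3–C16). The standards and samples ran on a C18 reverse-phase column at 43 °C with a 10→95% acetonitrile gradient in 0.1% formic acid (pH 2.7). The method follows EEC Directive 79/831 Annex V.A8.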
Compound `Cc1cc(C#N)cc(C(=O)NC2CC2)c1NC(=O)c1cc(Cn2nc(C(F)(F)F)cc2C(F)(F)F)nn1-c1ncccc1Cl` [I-1-188] yielded a logP of 3.56.

`Cc1cc(C#N)cc(C(N)=O)c1NC(=O)c1cc(Cn2nc(C(F)(F)F)cc2C(F)(F)F)nn1-c1ncccc1Cl` [I-1-189] registered a log partition coefficient (logP) of 3.15.

For the compound `Cc1cc(C#N)cc(C(=O)NCC#N)c1NC(=O)c1cc(Cn2nc(C(F)(F)F)cc2C(F)(F)F)nn1-c1ncccc1Cl` [I-1-190], the logP worked out at 3.28.

Consider `Cc1cc(C#N)cc(C(=O)NC2CC2)c1NC(=O)c1cc(Cn2cc(C(F)(F)C(F)(F)F)c(C(F)(F)C(F)(F)F)n2)nn1-c1ncccc1Cl` [I-1-191], for which the lipophilicity (logP) worked out at 4.29.

For the compound `Cc1cc(C#N)cc(C(N)=O)c1NC(=O)c1cc(Cn2cc(C(F)(F)C(F)(F)F)c(C(F)(F)C(F)(F)F)n2)nn1-c1ncccc1Cl` [I-1-192], the log partition coefficient (logP) amounted to 3.91.

For `Cc1cc(C#N)cc(C(=O)NCC#N)c1NC(=O)c1cc(Cn2cc(C(F)(F)C(F)(F)F)c(C(F)(F)C(F)(F)F)n2)nn1-c1ncccc1Cl` [I-1-193], the logP came out at 4.04.

In turn, `CSCC(C)NC(=O)c1cc(F)cc(C)c1NC(=O)c1cc(Cn2cc(Cl)c(C(F)(F)C(F)(F)F)n2)nn1-c1ncccc1Cl` (centres unmarked) [I-1-195] gave a logP of 4.13.

Consider `Cc1cc(F)cc(C(=O)NCc2ccco2)c1NC(=O)c1cc(Cn2cc(Cl)c(C(F)(F)C(F)(F)F)n2)nn1-c1ncccc1Cl` [I-1-196], for which the logP is 3.90.

`Cc1cc(C#N)cc(C(=O)NC2C3CCCCC32)c1NC(=O)c1cc(Cn2cc(Cl)c(C(F)(F)C(F)(F)F)n2)nn1-c1ncccc1Cl` (centres unmarked) [I-1-197] had a lipophilicity (logP) of 4.50.

`Cc1cc(C#N)cc(C(=O)NC2CC2CO)c1NC(=O)c1cc(Cn2cc(Cl)c(C(F)(F)C(F)(F)F)n2)nn1-c1ncccc1Cl` (centres unmarked) [I-1-198] came in with a lipophilicity (logP) of 3.11.

In turn, `Cc1cc(F)cc(C(=O)NC2C3CCCCC32)c1NC(=O)c1cc(Cn2cc(Cl)c(C(F)(F)C(F)(F)F)n2)nn1-c1ncccc1Cl` (centres unmarked) [I-1-199] registered a log partition coefficient (logP) of 4.55.

Consider `Cc1cc(Cl)cc(C(=O)NCc2ccco2)c1NC(=O)c1cc(Cn2cc(Cl)c(C(F)(F)C(F)(F)F)n2)nn1-c1ncccc1Cl` [I-1-201], for which the logP was 4.21.

Take `Cc1cc(Cl)cc(C(=O)NC2CCCC2N)c1NC(=O)c1cc(Cn2cc(Cl)c(C(F)(F)C(F)(F)F)n2)nn1-c1ncccc1Cl` (centres unmarked) [I-1-202]: the log partition coefficient (logP) is given as 2.30.

Turning to `Cc1cc(F)cc(C(=O)NC2CC2CO)c1NC(=O)c1cc(Cn2cc(Cl)c(C(F)(F)C(F)(F)F)n2)nn1-c1ncccc1Cl` (centres unmarked) [I-1-203], the logP came to 3.14.

Take `Cc1cc(F)cc(C(=O)NC(C)CS(C)(=O)=O)c1NC(=O)c1cc(Cn2cc(Cl)c(C(F)(F)C(F)(F)F)n2)nn1-c1ncccc1Cl` (centres unmarked) [I-1-204]: the logP is reported as 3.34.

Regarding `Cc1cc(Cl)cc(C(=O)NC2C3CCCCC32)c1NC(=O)c1cc(Cn2cc(Cl)c(C(F)(F)C(F)(F)F)n2)nn1-c1ncccc1Cl` (centres unmarked) [I-1-205], the lipophilicity (logP) is listed as 4.88.

Take `CSCC(C)NC(=O)c1cc(Cl)cc(C)c1NC(=O)c1cc(Cn2cc(Cl)c(C(F)(F)C(F)(F)F)n2)nn1-c1ncccc1Cl` (centres unmarked) [I-1-206]: the logP amounted to 4.41.

Regarding `Cc1cc(Cl)cc(C(=O)NC2CC2CO)c1NC(=O)c1cc(Cn2cc(Cl)c(C(F)(F)C(F)(F)F)n2)nn1-c1ncccc1Cl` (centres unmarked) [I-1-207], the log partition coefficient (logP) was determined as 3.37.

The compound `Cc1cc(C#N)cc(C(=O)NCc2ccco2)c1NC(=O)c1cc(Cn2cc(Cl)c(C(F)(F)C(F)(F)F)n2)nn1-c1ncccc1Cl` [I-1-208] gave a lipophilicity (logP) of 3.90.

Compound `CSCC(C)NC(=O)c1cc(C#N)cc(C)c1NC(=O)c1cc(Cn2cc(Cl)c(C(F)(F)C(F)(F)F)n2)nn1-c1ncccc1Cl` (centres unmarked) [I-1-209] showed a logP of 4.05.

`Cc1cc(C#N)cc(C(=O)NC(C)CS(C)(=O)=O)c1NC(=O)c1cc(Cn2cc(Cl)c(C(F)(F)C(F)(F)F)n2)nn1-c1ncccc1Cl` (centres unmarked) [I-1-210] came in with a logP of 3.34.

For the compound `Cc1cc(C#N)cc(C(=O)NC(C)C[S+](C)[O-])c1NC(=O)c1cc(Cn2cc(Cl)c(C(F)(F)C(F)(F)F)n2)nn1-c1ncccc1Cl` (centres unmarked) [I-1-211], the logP worked out at 3.02.

For the compound `Cc1cc(Cl)cc(C(=O)NC(C)C[S+](C)[O-])c1NC(=O)c1cc(Cn2cc(Cl)c(C(F)(F)C(F)(F)F)n2)nn1-c1ncccc1Cl` (centres unmarked) [I-1-212], the logP is 3.25.

For the compound `Cc1cc(Cl)cc(C(=O)NC(C)CS(C)(=O)=O)c1NC(=O)c1cc(Cn2cc(Cl)c(C(F)(F)C(F)(F)F)n2)nn1-c1ncccc1Cl` (centres unmarked) [I-1-213], the logP came to 3.60.

For the compound `Cc1cc(Cl)cc(C(=O)NC(CN2CCCCC2)C2CC2)c1NC(=O)c1cc(Cn2cc(Cl)c(C(F)(F)C(F)(F)F)n2)nn1-c1ncccc1Cl` (centres unmarked) [I-1-214], the logP worked out at 2.77.

Take `CCN(CC)CC(C)NC(=O)c1cc(Cl)cc(C)c1NC(=O)c1cc(Cn2cc(Cl)c(C(F)(F)C(F)(F)F)n2)nn1-c1ncccc1Cl` (centres unmarked) [I-1-215]: the logP was determined as 2.62.

As to `Cc1cc(F)cc(C(=O)NC(C)C[S+](C)[O-])c1NC(=O)c1cc(Cn2cc(Cl)c(C(F)(F)C(F)(F)F)n2)nn1-c1ncccc1Cl` (centres unmarked) [I-1-216], the log partition coefficient (logP) stood at 3.03.

In turn, `Cc1cc(F)cc(C(=O)NC(C)C)c1NC(=O)c1cc(Cn2cc(C(F)(F)C(F)(F)F)c(C(F)(F)C(F)(F)F)n2)nn1-c1ncccc1Cl` [I-1-217] registered a log partition coefficient (logP) of 4.47.

Compound `Cc1cc(F)cc(C(=O)NC(C)C)c1NC(=O)c1cc(Cn2nc(C(F)(F)F)nc2C(F)(F)F)nn1-c1ncccc1Cl` [I-1-218] registered a logP of 3.55.

Consider `CNC(=O)c1cc(F)cc(C)c1NC(=O)c1cc(Cn2nc(C(F)(F)F)nc2C(F)(F)F)nn1-c1ncccc1Cl` [I-1-219], for which the logP is reported as 3.12.

`CNC(=O)c1cc(F)cc(C)c1NC(=O)c1cc(Cn2cc(C(F)(F)C(F)(F)F)c(C(F)(F)C(F)(F)F)n2)nn1-c1ncccc1Cl` [I-1-220] showed a logP of 4.06.

Consider `CNC(=O)c1cc(F)cc(C)c1NC(=O)c1cc(Cn2nc(C(F)(F)F)cc2C(F)(F)F)nn1-c1ncccc1Cl` [I-1-221], for which the log partition coefficient (logP) is 3.32.

With `CNC(=O)c1cc(F)cc(C)c1NC(=O)c1cc(Cn2ccc(C(F)(F)F)n2)nn1-c1ncccc1Cl` [I-1-222], the logP is 2.58.

As for `CNC(=O)c1cc(F)cc(C)c1NC(=O)c1cc(Cn2cc(Cl)c(C(F)(F)C(F)(F)F)n2)nn1-c1ncccc1Cl` [I-1-223], the logP is recorded as 3.47.

In turn, `Cc1cc(F)cc(C(=O)NC(C)C)c1NC(=O)c1cc(Cn2cc(Cl)c(C(F)(F)C(F)(F)F)n2)nn1-c1ncccc1Cl` [I-1-224] registered a logP of 3.89.

`Cc1cc(F)cc(C(=O)NC(C)C)c1NC(=O)c1cc(Cn2nc(C(F)(F)F)cc2C(F)(F)F)nn1-c1ncccc1Cl` [I-1-225] came in with a logP of 3.77.

Compound `Cc1cc(F)cc(C(=O)NC(C)C)c1NC(=O)c1cc(Cn2ccc(C(F)(F)F)n2)nn1-c1ncccc1Cl` [I-1-226] came in with a logP of 3.00.

As to `CNC(=O)c1cc(I)cc(C)c1NC(=O)c1cc(Cn2nc(C(F)(F)F)cc2C(F)(F)F)nn1-c1ncccc1Cl` [I-1-227], the logP amounted to 3.87.

On to `CCNC(=O)c1cc(I)cc(C)c1NC(=O)c1cc(Cn2nc(C(F)(F)F)cc2C(F)(F)F)nn1-c1ncccc1Cl` [I-1-228], for which the logP came to 4.06.

As to `CCCNC(=O)c1cc(I)cc(C)c1NC(=O)c1cc(Cn2nc(C(F)(F)F)cc2C(F)(F)F)nn1-c1ncccc1Cl` [I-1-229], the logP is 4.33.

In turn, `Cc1cc(I)cc(C(=O)NC(C)C)c1NC(=O)c1cc(Cn2nc(C(F)(F)F)cc2C(F)(F)F)nn1-c1ncccc1Cl` [I-1-230] returned a lipophilicity (logP) of 4.29.

Regarding `Cc1cc(I)cc(C(=O)NC2CC2)c1NC(=O)c1cc(Cn2nc(C(F)(F)F)cc2C(F)(F)F)nn1-c1ncccc1Cl` [I-1-231], the lipophilicity (logP) is 4.01.

Compound `Cc1cc(I)cc(C(=O)NCC(F)(F)F)c1NC(=O)c1cc(Cn2nc(C(F)(F)F)cc2C(F)(F)F)nn1-c1ncccc1Cl` [I-1-232] gave a logP of 5.28.

With `Cc1cc(I)cc(C(=O)NC(C)C2CC2)c1NC(=O)c1cc(Cn2nc(C(F)(F)F)cc2C(F)(F)F)nn1-c1ncccc1Cl` (centres unmarked) [I-1-233], the logP is 4.55.

With `Cc1cc(I)cc(C(N)=O)c1NC(=O)c1cc(Cn2nc(C(F)(F)F)cc2C(F)(F)F)nn1-c1ncccc1Cl` [I-1-234], the lipophilicity (logP) was 3.56.

The compound `Cc1cc(I)cc(C(=O)NCC2CC2)c1NC(=O)c1cc(Cn2nc(C(F)(F)F)cc2C(F)(F)F)nn1-c1ncccc1Cl` [I-1-235] gave a lipophilicity (logP) of 4.34.

`Cc1cc(I)cc(C(=O)NC(C2CC2)C2CC2)c1NC(=O)c1cc(Cn2nc(C(F)(F)F)cc2C(F)(F)F)nn1-c1ncccc1Cl` [I-1-236] gave a log partition coefficient (logP) of 4.80.

For the compound `CNC(=O)c1cc(I)cc(C)c1NC(=O)c1cc(Cn2nc(C(F)(F)F)nc2C(F)(F)F)nn1-c1ncccc1Cl` [I-1-237], the lipophilicity (logP) came to 3.60.

In turn, `Cc1cc(I)cc(C(=O)NC(C)C)c1NC(=O)c1cc(Cn2nc(C(F)(F)F)nc2C(F)(F)F)nn1-c1ncccc1Cl` [I-1-238] registered a log partition coefficient (logP) of 4.06.

Compound `CNC(=O)c1cc(I)cc(C)c1NC(=O)c1cc(Cn2cc(C(F)(F)C(F)(F)F)c(C(F)(F)C(F)(F)F)n2)nn1-c1ncccc1Cl` [I-1-239] yielded a log partition coefficient (logP) of 4.51.

Compound `Cc1cc(I)cc(C(=O)NC(C)C)c1NC(=O)c1cc(Cn2cc(C(F)(F)C(F)(F)F)c(C(F)(F)C(F)(F)F)n2)nn1-c1ncccc1Cl` [I-1-240] displayed a logP of 4.96.

For `Cc1cc(I)cc(C(=O)NCC#N)c1NC(=O)c1cc(Cn2nc(C(F)(F)F)cc2C(F)(F)F)nn1-c1ncccc1Cl` [I-1-241], the log partition coefficient (logP) came out at 3.73.

`Cc1cc(I)cc(C(=O)NC(C)C)c1NC(=O)c1cc(Cn2cc(Cl)c(C(F)(F)C(F)(F)F)n2)nn1-c1ncccc1Cl` [I-1-242] yielded a log partition coefficient (logP) of 4.40.

On to `CNC(=O)c1cc(I)cc(C)c1NC(=O)c1cc(Cn2cc(Cl)c(C(F)(F)C(F)(F)F)n2)nn1-c1ncccc1Cl` [I-1-243], for which the lipophilicity (logP) was 3.96.

Compound `CCNC(=O)c1cc(I)cc(C)c1NC(=O)c1cc(Cn2nc(C(F)(F)F)nc2C(F)(F)F)nn1-c1ncccc1Cl` [I-1-244] had a logP of 3.83.

In turn, `Cc1cc(I)cc(C(=O)NCC#N)c1NC(=O)c1cc(Cn2nc(C(F)(F)F)nc2C(F)(F)F)nn1-c1ncccc1Cl` [I-1-245] registered a logP of 3.53.
